Test results published in US20090325959A1 (priority 2008, published 2009).
pIC50, pKi: −log10 of the molar value. Where two headings read alike, the source gives them in different places.

How the values were obtained:
[1] = Rat oral pharmacokinetics (plasma); type: in vivo; conditions: 20-30 μmol/kg
ROCK2 = target: T1, ROCK2 (Homo sapiens, UniProt O75116); assay: Rho kinase inhibition assay (IMAP fluorescence polarization), ROCK2; type: biochemical;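 further: kinase reaction started with 10 µM ATP and run 60 min at room temperature, then phosphorylated substrate captured on IMAP beads for 30 min and fluorescence polarization read in mP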
T1 construct: purchased Upstate/Chemicon 14-451
T1 sequence (O75116 11-552 limits assumed): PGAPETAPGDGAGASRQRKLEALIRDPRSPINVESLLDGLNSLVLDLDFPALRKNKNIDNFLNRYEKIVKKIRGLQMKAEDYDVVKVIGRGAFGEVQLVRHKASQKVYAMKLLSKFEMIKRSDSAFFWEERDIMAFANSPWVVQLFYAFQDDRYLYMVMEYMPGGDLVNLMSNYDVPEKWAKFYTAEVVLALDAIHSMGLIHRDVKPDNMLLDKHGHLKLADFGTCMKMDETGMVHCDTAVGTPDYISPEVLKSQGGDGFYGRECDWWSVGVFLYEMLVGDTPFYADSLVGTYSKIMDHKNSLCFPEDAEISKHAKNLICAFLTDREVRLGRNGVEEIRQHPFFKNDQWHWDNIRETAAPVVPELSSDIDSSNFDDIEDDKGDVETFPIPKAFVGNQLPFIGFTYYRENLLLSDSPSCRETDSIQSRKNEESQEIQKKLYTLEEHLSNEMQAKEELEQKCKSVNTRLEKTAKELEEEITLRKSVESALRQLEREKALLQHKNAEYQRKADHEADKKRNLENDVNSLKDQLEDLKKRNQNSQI
Procedure: (§2) Following the pre-incubation, 10 μM ATP was added to initiate the reaction. After 60 minutes at room temperature, Molecular Devices IMAP™ binding solution was added to bind phosphorylated substrate. After 30 minutes of incubation in the presence of the IMAP™ beads, the fluorescence polarization was read and the ratio was reported as mP. IC50 values for compounds and EC50 values for ATP were calculated using the Prism software from Graphpad.

p70S6K human enzyme = target: T2, p70S6K human enzyme (Homo sapiens, UniProt P23443, T412E); assay: p70S6K inhibition assay (IMAP FP); type: biochemical;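 further: kinase reaction run at room temperature, phosphorylated substrate captured on IMAP beads and read as fluorescence polarization in mP, IC50 then converted to Ki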
T2 construct: purchased Upstate Chemicon 14-486
T2 sequence (P23443 1-421 T412E limits assumed): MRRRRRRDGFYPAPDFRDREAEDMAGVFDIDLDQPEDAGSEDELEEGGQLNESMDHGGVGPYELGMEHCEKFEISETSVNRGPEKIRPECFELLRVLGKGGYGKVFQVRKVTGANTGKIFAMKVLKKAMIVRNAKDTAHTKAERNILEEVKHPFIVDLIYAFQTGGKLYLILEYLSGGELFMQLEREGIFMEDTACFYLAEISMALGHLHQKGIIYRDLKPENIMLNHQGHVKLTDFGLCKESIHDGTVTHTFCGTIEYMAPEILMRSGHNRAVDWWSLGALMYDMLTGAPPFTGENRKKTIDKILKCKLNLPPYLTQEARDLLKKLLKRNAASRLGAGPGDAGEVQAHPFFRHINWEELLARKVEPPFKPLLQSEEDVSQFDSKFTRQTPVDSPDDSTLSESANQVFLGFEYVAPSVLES

human monocytes = assay: Human monocyte cytokine secretion assay (LPS-stimulated); type: cell-based; conditions: average percent of stimulated IL-6 secretion from human monocytes at 10 μM of test compound
Procedure: Peripheral blood from healthy human volunteers was collected and the monocytes isolated via Ficoll-paque density centrifugation. […] The cells were allowed to pre-incubate with test compound at the indicated concentration for 30 minutes (37° C., 5% CO2, humidified air); after which the supernatant was removed and media containing compound and 1 ng/mL LPS was added. Cells were allowed to incubate with compounds and LPS for 4 hours at 37° C. after which the supernatant was removed and stored at −80° C. Cytokine concentrations in the supernatant were determined using commercially available Bio-Rad Bio-plex™ kits according the manufacturer's instructions.

[2] = test system: A-10 rat thoracic aorta cells; assay: PDGF-stimulated smooth muscle cell proliferation assay (BrdU incorporation); type: cell-based; conditions: A-10 cells, 10 ng/mL PDGF, BrdU incorporation, percent of total challenge-stimulated proliferation;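 further: cells kept in serum-free medium, BrdU allowed to incorporate for 24 h, then incorporated label detected fluorometrically with an anti-BrdU antibody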
Procedure: Effects on cell proliferation were measured using a bromodeoxyuridine (BrdU) incorporation assay. […] Serum free media containing 01% BSA was added to the cells. 24 hours later the media was removed and replaced with warmed serum free media. […] Proliferation was then monitored using the BrdU Cell Proliferation Assay, HTS (Calbiochem cat. #t HTS01). BrdU was allowed to incorporate into cells for 24 hours prior to the addition of fixative/denaturing solution and the fluorometric detection of incorporated BrdU using a BrdU antibody as per manufacturer's directions. Data are reported as a percent of the PDGF-stimulated BrdU incorporation.

[3] = Compound plasma concentrations in unsensitized mice at 15 min post administration; type: in vivo; conditions: mouse, 15 μmol/kg; mean compound plasma concentration in mice at 15 minutes post oral administration; read-out: Mouse Oral PK
ROCK1 = target: T3, ROCK1 (Homo sapiens, UniProt Q13464); assay: Rho kinase inhibition assay (IMAP fluorescence polarization), ROCK1; type: biochemical;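 further: kinase reaction run 60 min at room temperature, then phosphorylated substrate captured on IMAP beads for 30 min, with fluorescence polarization read in mP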
T3 construct: purchased Upstate/Chemicon 14-601
T3 sequence (Q13464 17-535 limits assumed): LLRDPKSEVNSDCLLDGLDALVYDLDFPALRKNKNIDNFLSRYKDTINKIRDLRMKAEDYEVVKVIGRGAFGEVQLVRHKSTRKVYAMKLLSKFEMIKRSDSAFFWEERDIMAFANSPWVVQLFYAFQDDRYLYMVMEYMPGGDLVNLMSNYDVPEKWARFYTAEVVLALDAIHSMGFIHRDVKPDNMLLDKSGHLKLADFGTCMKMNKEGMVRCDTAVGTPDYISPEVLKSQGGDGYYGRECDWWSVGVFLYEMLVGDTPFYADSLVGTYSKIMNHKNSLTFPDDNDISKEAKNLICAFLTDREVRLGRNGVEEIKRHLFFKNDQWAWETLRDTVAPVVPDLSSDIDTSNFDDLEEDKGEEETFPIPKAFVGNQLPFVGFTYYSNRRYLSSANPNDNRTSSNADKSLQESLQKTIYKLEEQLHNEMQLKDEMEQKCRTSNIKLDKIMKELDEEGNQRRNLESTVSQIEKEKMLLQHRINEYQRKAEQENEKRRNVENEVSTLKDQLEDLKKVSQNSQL
Procedure: as §2

Akt3 human enzyme = target: T4, Akt3 human enzyme (Homo sapiens, UniProt Q9Y243); assay: Akt3 inhibition assay (IMAP FP); type: biochemical;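 further: kinase reaction run 60 min at room temperature after 30 µM ATP start, phosphorylated substrate captured on IMAP beads and read as fluorescence polarization (mP)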
T4 construct: purchased Upstate Chemicon 14-502
T4 sequence (Q9Y243 whole entry): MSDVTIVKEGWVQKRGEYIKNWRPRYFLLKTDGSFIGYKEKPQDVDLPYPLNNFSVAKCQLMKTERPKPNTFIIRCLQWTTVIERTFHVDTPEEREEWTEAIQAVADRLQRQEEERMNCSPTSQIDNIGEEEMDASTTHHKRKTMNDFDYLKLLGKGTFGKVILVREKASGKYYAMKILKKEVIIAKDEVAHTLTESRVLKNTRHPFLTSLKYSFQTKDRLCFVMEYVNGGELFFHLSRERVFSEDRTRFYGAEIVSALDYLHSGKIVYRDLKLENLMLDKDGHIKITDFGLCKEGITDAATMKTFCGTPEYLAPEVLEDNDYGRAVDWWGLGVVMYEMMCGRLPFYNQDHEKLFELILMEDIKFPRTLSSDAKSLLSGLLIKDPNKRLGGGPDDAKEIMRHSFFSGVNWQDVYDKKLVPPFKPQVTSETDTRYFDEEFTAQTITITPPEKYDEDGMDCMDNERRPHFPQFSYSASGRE

GCK = target: T5, GCK (Homo sapiens, UniProt Q12851); assay: Kinase panel screen (KinaseProfiler), GCK; type: biochemical; conditions: for activity at 10 µM: 10 μM test compound, 10 μM ATP, read-out: GCK Percent inhibition, 10 μM
T5 construct: purchased Upstate, Millipore Bioscience Division (KinaseProfiler service)
T5 sequence (Q12851 1-820): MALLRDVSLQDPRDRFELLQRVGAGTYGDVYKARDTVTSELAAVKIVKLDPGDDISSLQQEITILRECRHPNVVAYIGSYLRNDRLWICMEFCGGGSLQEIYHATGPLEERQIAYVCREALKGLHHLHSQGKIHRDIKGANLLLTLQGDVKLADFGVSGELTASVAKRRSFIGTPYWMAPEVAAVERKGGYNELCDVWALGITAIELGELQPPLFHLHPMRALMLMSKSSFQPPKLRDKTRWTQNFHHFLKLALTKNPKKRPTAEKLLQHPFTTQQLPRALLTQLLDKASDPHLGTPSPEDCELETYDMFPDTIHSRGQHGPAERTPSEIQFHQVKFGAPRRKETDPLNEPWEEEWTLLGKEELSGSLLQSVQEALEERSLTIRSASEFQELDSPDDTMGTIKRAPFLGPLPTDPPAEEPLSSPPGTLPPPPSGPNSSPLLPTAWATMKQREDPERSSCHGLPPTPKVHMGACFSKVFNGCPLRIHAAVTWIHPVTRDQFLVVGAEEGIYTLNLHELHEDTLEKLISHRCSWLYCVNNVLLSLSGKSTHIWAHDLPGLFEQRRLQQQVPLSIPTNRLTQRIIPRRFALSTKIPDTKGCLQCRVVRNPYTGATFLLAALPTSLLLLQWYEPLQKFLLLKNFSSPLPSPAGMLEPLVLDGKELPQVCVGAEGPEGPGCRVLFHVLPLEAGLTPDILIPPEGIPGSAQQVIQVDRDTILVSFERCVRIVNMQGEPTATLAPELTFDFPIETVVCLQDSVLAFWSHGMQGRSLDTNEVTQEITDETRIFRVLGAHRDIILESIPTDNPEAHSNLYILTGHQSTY
Procedure: (§1) Compounds of Formulae I and II were examined for activity against a selected panel of kinases using the KinaseProfiler™ enzyme profiling services (Upstate, Millipore Bioscience Division). Percent kinase activity at 10 μM and 1 μM test compound and 10 μM ATP was determined against 40 wild-type recombinant human kinases according to Upstate's standard protocol: ASK1, BTK, CSK, c-RAF, GCK, GSK3β, IKKα, IKKβ, IRAK1, IRAK4, JNK1α1, JNK2α2, JNK3, ERK1, ERK2, MAPKAP-K2, MAPKAP-K3, MEK1, MKK4, MKK6, MKK7β, Mnk2, MSK1, PAK3, PDK1, PRAK, ROCK1, Rsk2, SAPK2a, SAPK2b, SAPK3, SAPK4, SRPK1, SRPK2, Syk, TAK1, TBK1, PI3-Kβ, PI3-Kγ, PI3-Kδ.

ERK2 = target: T6, ERK2 (Homo sapiens, UniProt P28482); assay: Kinase panel screen (KinaseProfiler), ERK2; type: biochemical
T6 construct: purchased Upstate, Millipore Bioscience Division (KinaseProfiler service)
T6 sequence (P28482 whole entry): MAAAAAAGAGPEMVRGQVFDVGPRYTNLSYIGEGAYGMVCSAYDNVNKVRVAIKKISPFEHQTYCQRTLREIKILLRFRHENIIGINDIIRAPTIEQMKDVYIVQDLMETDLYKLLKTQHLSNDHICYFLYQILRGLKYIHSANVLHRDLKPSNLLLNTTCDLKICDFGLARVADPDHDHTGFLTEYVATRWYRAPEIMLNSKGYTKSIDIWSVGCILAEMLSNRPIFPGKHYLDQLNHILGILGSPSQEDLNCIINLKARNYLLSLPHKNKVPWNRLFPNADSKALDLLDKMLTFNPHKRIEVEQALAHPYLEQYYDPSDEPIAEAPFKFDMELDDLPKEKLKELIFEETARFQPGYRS
Procedure: as §1

[4] = test system: ova-sensitized, ova-challenged mice; assay: Prevention of airway hyperreactivity (Penh, methacholine) in mouse ovalbumin sensitization model; type: in vivo; conditions: for log10AUC (Penh): days 27 to 31; for airway hyperreactivity: intratracheal once a day during days 27 to 31
Procedure: The anti-inflammatory dosing paradigm consists of dosing the animals once a day starting on day 27 and finishing on either day 30 or 31 (1 hr prior to the aerosolized ovalbumin challenges on days 28 to 30) but not on day 32 when hyperreactivity evaluation occurs. […] Exposure to the methacholine doses consisted of a 3 minute period during which a nebulizer was aerosolizing the methacholine and an additional 3 minute period following the cessation of nebulization. […] Enhanced pause (Penh), a unitless index of airway hyperreactivity, is derived from the expiratory side of the respiratory waveform measured via the plethysmograph and is used as an indirect measure of airway resistance and hyperreactivity. […] Following the methacholine dose response, BALF was collected and all animals were anesthetized, bled and euthanized. […] The Penh value at each of the dose levels of methacholine represents the 6-minute average response. Change from baseline (CFB) in Penh was calculated at each methacholine dose and the area under the curve (AUC) for these CFB values was calculated using the trapezoidal rule. This same approach was applied for each mouse across multiple experiments. […] Data from equal experimental conditions across experiments performed on different days were pooled for statistical analysis and data reporting. […] A random intercept for each experiment was assumed to account for possible similarities of the results obtained from a given experiment (i.e., as a “blocking effect”). […] For FIG. 9, linear AUC values from compound treated mice were reported as a percent of linear AUC values from vehicle-treated ovalbumin-sensitized/ovalbumin-challenged (asthmatic) mice.

Mnk2 = target: T7, Mnk2 (Homo sapiens, UniProt Q9HBH9); assay: Kinase panel screen (KinaseProfiler), Mnk2; type: biochemical; conditions: 10 μM ATP; for activity at 1 µM: 1 μM test compound, read-out: Mnk2 Percent inhibition, 1 μM; for activity at 10 µM: 10 μM test compound, read-out: Mnk2 Percent inhibition, 10 μM
T7 construct: purchased Upstate, Millipore Bioscience Division (KinaseProfiler service)
T7 sequence (Q9HBH9 whole entry): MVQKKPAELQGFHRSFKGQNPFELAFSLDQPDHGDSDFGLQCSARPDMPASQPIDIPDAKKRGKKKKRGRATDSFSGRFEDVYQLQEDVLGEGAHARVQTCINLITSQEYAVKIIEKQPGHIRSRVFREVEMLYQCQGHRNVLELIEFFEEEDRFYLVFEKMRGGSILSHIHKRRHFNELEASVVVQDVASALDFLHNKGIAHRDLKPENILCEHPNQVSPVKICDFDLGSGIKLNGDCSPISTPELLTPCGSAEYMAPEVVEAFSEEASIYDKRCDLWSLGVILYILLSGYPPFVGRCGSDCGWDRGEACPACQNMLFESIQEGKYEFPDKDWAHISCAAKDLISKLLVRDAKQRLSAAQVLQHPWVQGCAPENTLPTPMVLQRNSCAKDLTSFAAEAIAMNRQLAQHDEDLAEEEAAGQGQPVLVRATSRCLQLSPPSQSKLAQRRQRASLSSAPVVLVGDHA
Procedure: as §1

IRAK1 = target: T8, IRAK1 (Homo sapiens, UniProt P51617); assay: Kinase panel screen (KinaseProfiler), IRAK1; type: biochemical; conditions: 10 μM ATP; for activity at 1 µM: 1 μM test compound, read-out: IRAK1 Percent inhibition, 1 μM; for activity at 10 µM: 10 μM test compound, read-out: IRAK1 Percent inhibition, 10 μM
T8 construct: purchased Upstate, Millipore Bioscience Division (KinaseProfiler service)
T8 sequence (P51617 whole entry): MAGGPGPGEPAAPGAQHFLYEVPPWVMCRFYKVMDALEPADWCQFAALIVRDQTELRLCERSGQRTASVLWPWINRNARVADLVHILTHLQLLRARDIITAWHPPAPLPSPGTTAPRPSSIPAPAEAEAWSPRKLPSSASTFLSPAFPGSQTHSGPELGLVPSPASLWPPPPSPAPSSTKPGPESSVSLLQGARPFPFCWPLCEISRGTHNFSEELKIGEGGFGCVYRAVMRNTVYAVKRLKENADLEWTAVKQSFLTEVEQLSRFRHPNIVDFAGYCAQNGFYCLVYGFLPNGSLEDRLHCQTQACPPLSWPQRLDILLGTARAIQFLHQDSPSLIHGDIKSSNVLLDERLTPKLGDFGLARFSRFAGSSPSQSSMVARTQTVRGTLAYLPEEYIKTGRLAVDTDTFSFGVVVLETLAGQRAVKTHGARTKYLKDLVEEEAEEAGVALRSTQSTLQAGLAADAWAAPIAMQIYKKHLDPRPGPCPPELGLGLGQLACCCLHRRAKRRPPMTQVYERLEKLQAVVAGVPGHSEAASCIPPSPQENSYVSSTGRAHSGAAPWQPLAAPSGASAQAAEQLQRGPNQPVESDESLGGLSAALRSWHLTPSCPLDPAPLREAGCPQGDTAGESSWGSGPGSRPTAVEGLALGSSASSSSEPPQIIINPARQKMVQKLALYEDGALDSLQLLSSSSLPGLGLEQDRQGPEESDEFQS
Procedure: as §1

IRAK4 = target: T9, IRAK4 (Homo sapiens, UniProt Q9NWZ3); assay: Kinase panel screen (KinaseProfiler), IRAK4; type: biochemical; conditions: 10 μM ATP
T9 construct: purchased Upstate, Millipore Bioscience Division (KinaseProfiler service)
T9 sequence (Q9NWZ3 1-460): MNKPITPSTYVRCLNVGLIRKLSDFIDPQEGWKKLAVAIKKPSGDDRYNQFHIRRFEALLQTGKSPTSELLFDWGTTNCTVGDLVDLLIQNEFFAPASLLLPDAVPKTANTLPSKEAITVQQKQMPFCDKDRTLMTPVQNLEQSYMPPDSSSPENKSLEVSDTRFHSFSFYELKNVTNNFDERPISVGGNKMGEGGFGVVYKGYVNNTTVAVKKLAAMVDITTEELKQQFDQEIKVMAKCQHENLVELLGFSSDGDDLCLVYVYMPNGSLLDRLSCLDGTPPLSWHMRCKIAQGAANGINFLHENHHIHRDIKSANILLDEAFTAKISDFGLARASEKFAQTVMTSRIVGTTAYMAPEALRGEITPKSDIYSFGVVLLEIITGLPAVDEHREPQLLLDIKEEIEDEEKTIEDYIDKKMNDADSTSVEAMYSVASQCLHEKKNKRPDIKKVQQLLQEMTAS
Procedure: as §1

ERK1 = target: T10, ERK1 (Homo sapiens, UniProt P27361); assay: Kinase panel screen (KinaseProfiler), ERK1; type: biochemical
T10 construct: purchased Upstate, Millipore Bioscience Division (KinaseProfiler service)
T10 sequence (P27361 whole entry): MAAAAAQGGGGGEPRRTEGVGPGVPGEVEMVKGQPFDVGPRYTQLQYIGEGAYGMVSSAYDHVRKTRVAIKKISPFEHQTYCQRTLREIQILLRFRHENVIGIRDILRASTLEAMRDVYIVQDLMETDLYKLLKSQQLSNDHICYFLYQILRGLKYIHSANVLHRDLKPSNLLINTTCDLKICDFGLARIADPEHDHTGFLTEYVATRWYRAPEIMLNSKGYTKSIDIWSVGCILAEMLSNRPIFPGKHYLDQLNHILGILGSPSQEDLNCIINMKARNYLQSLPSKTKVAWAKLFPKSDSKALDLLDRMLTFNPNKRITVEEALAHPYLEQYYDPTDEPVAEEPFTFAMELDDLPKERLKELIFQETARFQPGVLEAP
Procedure: as §1

human neutrophils = assay: Human neutrophil chemotaxis induced by fMLP (modified Boyden chamber); type: cell-based; conditions: Neutrophil, 1 h, 1 μM fMLP challenge, one hour, read-out: Chemotaxis Avg. IC50
From the text: This assay is an in vitro assay of neutrophil chemotaxis that can be used to evaluate the ability of Rho Kinase inhibitor compounds of Formula I or II to inhibit the migration of human neutrophils, an inflammatory cell that has been implicated in the pathophysiology of allergic conjunctivitis.
Peripheral blood from healthy human volunteers was collected and the neutrophils were isolated by Ficoll-paque density centrifugation followed by dextran sedimentation and hypotonic lysis of the red blood cells. Neutrophil chemotaxis was assessed using a modified Boyden Chamber (Neuroprobe, 96-well) with a 3 μm pore polycarbonate membrane. The ability of the tested compounds to block chemotaxis induced by a 1 μM fMLP challenge during a one hour incubation at 37° C. with 5% CO2 was assessed in a dose response manner.

[5] = 10 μM ATP, read-out: ROCK2 Ki, Avg
[6] = 30 μM ATP, Ki=IC50/(1+([ATP Challenge]/EC50 ATP)), read-out: p70S6K Ki, Avg
[7] = average Ki, read-out: p70S6K Ki
[8] = 30 μM ATP, Ki=IC50/(1+([ATP Challenge]/EC50 ATP)), read-out: Akt3 Ki, Avg

Structure (SMILES) | pKi (ROCK2; [5]) | pKi (ROCK2; average Ki, read-out: ROCK2 Ki) | pKi (p70S6K human enzyme; [6]) | pKi (p70S6K human enzyme; [7]) | IL-6, % (human monocytes) [%] | concentration at 15 min [3] [nM] | pKi (ROCK1; Avg, 10 μM ATP) | pKi (ROCK1; average Ki) | pKi (Akt3 human enzyme; [8]) | pKi (Akt3 human enzyme; average Ki, read-out: Akt3 Ki) | GCK Percent inhibition, 1 μM (GCK) [%] | activity at 10 µM (GCK) [%] | ERK2 Percent inhibition, 1 μM (ERK2) [%] | ERK2 Percent inhibition, 10 μM (ERK2) [%] | log10AUC (Penh) ([4]; 0.5 μmol/kg/intratracheal) | airway hyperreactivity [4] | activity at 1 µM (Mnk2) [%] | activity at 10 µM (Mnk2) [%] | activity at 1 µM (IRAK1) [%] | activity at 10 µM (IRAK1) [%] | also measured
CSc1ccc(CN2CCC[C@@H](Nc3ccc4[nH]ncc4c3)C2)cc1 [Compound 1.074, (R)-N-(1-(4-(methylthio)benzyl)piperidin-3-yl)-1H-indazol-5-amine] | 8.39 | 8.39 | 6.26 | 6.26 | 96.0 | 506 | 7.40 | 7.40 | 6.36 | 6.36 |  |  |  |  |  |  |  |  |  |  | Vz_F ([1]; mean n = 3): 45.7 L/kg; AUC(0-t) ([1]; male, CD Sprague Dawley, mean n = 3): 1.17 µM·h; Cmax ([1]; male, CD Sprague Dawley, mean n = 3, read-out: Cmax): 735 nM; Tmax ([1]; male, CD Sprague Dawley, mean n = 3, read-out: Tmax): 25.2 min; Percent of PDGF Induced Proliferation at 1 μM Avg ([2]; 1 μM test compound): 79.9%; Percent of PDGF Induced Proliferation at 10 μM Avg ([2]; 10 μM test compound): 46.9%
Cc1ccc(CN2CCC[C@@H](Nc3ccc4[nH]ncc4c3)C2)cc1OCCO [Compound 1.161, (R)-2-(5-((3-(1H-indazol-5-ylamino)piperidin-1-yl)methyl)-2-methylphenoxy)ethanol] | 8.60 | 8.60 | 6.89 | 6.89 |  |  | 8.00 | 8.00 | 7.20 | 7.20 | 96 | 91 | 104 | 92 | 2.0405 | prevention of airway hyperreactivity | 108 | 106 | 106 | 99 | activity at 1 µM (IRAK4; 1 μM test compound, read-out: IRAK4 Percent inhibition, 1 μM): 96%; activity at 10 µM (IRAK4; 10 μM test compound, read-out: IRAK4 Percent inhibition, 10 μM): 109%
NC(=O)Cn1ccc2ccc(CN3CC[C@@H](Nc4cccc5cnccc45)C3)cc21 [Compound 2.058, (R)-2-(6-((3-(isoquinolin-5-ylamino)pyrrolidin-1-yl)methyl)-1H-indol-1-yl)acetamide] | 8.48 | 8.48 | 6.67 | 6.67 | 1.3 | 194 | 7.82 | 7.82 | 5.71 | 5.71 |  |  |  |  |  |  |  |  |  |  | 
OCCn1ccc2cc(CN3CC[C@@H](Nc4cccc5cnccc45)C3)ccc21 [Compound 2.066, (R)-2-(5-((3-(isoquinolin-5-ylamino)pyrrolidin-1-yl)methyl)-1H-indol-1-yl)ethanol] | 8.64 | 8.64 | 6.43 | 6.43 |  |  | 7.99 | 7.99 | 5.60 | 5.60 | 39 | 7 | 50 | 12 | 2.0248 | prevention of airway hyperreactivity | 99 | 54 | 74 | 32 | inhibition at 1 µM (ERK2; 1 μM, read-out: ERK2 inhibited): ~50%; activity at 1 µM (ERK1; 1 μM test compound, 10 μM ATP, read-out: ERK1 Percent inhibition, 1 μM): 52%; inhibition at 1 µM (ERK1; 1 μM, read-out: ERK1 inhibited): ~50%; activity at 10 µM (ERK1; 10 μM test compound, 10 μM ATP, read-out: ERK1 Percent inhibition, 10 μM): 15%
C[C@@H](N)[C@H]1CC[C@H](C(=O)Nc2ccncc2)CC1 [Compound Y-27632, reference compound] |  |  |  |  |  |  |  |  |  |  |  |  |  |  |  |  |  |  |  |  | log10AUC (Penh) ([4]; 30 μmol/kg/oral): 1.9942; pIC50 (human neutrophils): 5.17
C[C@@H]1C[C@H]2[C@@H]3CCC4=CC(=O)C=C[C@]4(C)[C@@]3(F)[C@@H](O)C[C@]2(C)[C@@]1(O)C(=O)CO [Dexamethasone, dexamethasone, reference compound] |  |  |  |  |  |  |  |  |  |  |  |  |  |  |  |  |  |  |  |  | log10AUC (Penh) ([4]; 1 mg/kg/oral): 2.0216
